Measured values taken from US6573078B1, “Compounds which inhibit HIV replication” (priority 1992, dated 2003).
Entries after “also recorded” stand apart in the source; their conditions may differ.

B1: DP-107 (peptide)
peptide: Ac-NNLLRAIEAQQHLLQLTVWGIKQLQARILAVERYLKDQ-NH2
notes: Synthetic peptide; also called peptide DP-107

What was measured:
HIV-1LAI virus = assay: Peptide blockade of HIV-1 induced cell-cell fusion (syncytia formation; Molt4 cells co-cultivated with chronically infected CEM cells); type: cell-based; parameters: Anti-fusogenic activity (in words): dose or concentration left out as unconfirmed; details: for Fusion: quantity of compound required for 90% reduction in number of syncytia: control = 90 syncytia; for No. Syncytia/well: Table 3, ctrl cells only = 85; for Inhibitory / anti-viral / biological activity (in words): cell fusion assay
Protocol: The initial screen for antiviral activity of the peptides shown in FIG. 1 was for blockade of syncytium formation induced by overnight co-cultivation of uninfected Molt4 cells with chronically infected (HIV-1IIIB) CEM cells.
Approximately 7×10^4 Molt cells were incubated with 1×10^4 CEM cells chronically infected with the HIV-1LAI virus in 96 well plates (one-half area cluster plates;Costar. Cambridge, Mass.) in a final volume of […] culture media in accordance with known techniques (T. Matthews et al., Proc. Natl. Acad. Sci. U.S.A. 84, 5424 (1987)). Peptide inhibitors were added in a volume of […] and the cell mixtures were incubated for 24 hr at 37° C. At that time point, multinucleated giant cells were estimated by microscopic examination at a 40× magnification which allowed visualization of the entire well in a single field.

HIV-1LAI = assay: Peptide inhibition of infection by cell-free virus (neutralization assay; AA5 cells, RT activity readout); type: cell-based
Protocol: Cell cultures were maintained in 96-well microtiter plates for 8 days by addition of fresh medium (but no further addition of peptides) every other day. On the eighth day post-infection, supernatant was tested for reverse transcriptase activity as evidence of successful infection.
The micro RT assay was adapted from Goff et al. (J. Virol. 38, 239 (1981)) and Willey et al. (J. Virol. 62, 139 (1988)). Supernatants from virus/cell cultures are made 1% in Triton-X100. A […] sample of supernatant was added to 50 ml of RT cocktail in a 96 well U bottom microtiter plate and the samples incubated at […] for 90 min. The cocktail contained 75 mM KCl, 2 mM dithiothreitol, 5 mm Mgcl2l 5 mg/ml poly A (Pharmacia cat. No. 27-4110-01), 0.25 units/ml oligo dT (Pharmacia cat. No. 27-7858-01), 0.05% NP40, 50 mM Tris-HC1, pH 7.8, 0.5 mM non-radioactive dTTP, and 10 mCi/ml ^32p-dTTP (Amersham cat. No. PB.10167). After the incubation period, 40 ml of reaction mixture was applied to a Schleicher and Schuell NA45 membrane (or DE81 paper) saturated in 2×SSC buffer (0.3M NaCl and […]) held in a Schleicher and Schuell Minifold over one sheet of GB003 filter paper. Each well of the minifold was washed four times with […] 2×SSC. The membrane was removed from the minifold and washed 2 more times in a pyrex dish with an excess of 2×SSC. Finally the membrane was drained on absorbent paper, placed on Whatman #3 paper, covered with saran wrap, and exposed to film overnight.
The HIV1LAI virus was obtained from R. Gallo (see M. Popovic et al., Science 224, 497 (1984)) and propagated in CEM cells cultured in RPMI 1640 containing 10-% FCS. Supernatant from the infected CEM cells was passed through a […] and the infectious titer estimated in a microinfectivity assay using the AA5 cell line to support virus replication. For this purpose 25 ml of serially diluted virus was added to 75 ml AA5 cells at 2×10^5/ml in a 96 well microtiter plate. Each virus dilution was tested in triplicate. Cells were cultured for eight days by addition of fresh medium every other day. On day 8 post infection supernatant samples were tested for virus replication as evidenced by RT activity released to the supernatant in accordance with the procedure described above. The TCID50 was calculated according to the Reed and Muench formula in accordance with known techniques. See L. Reed et al., Amer. J. Hygiene 27, 493 (1938) . The titer of the HIV-1LAI stock used for these studies, as measured on the AA5 cell line, was approximately 1×10^7TCID50/ml. The two primary isolates were obtained from PBMCs of two infected donors, one from Brazil (HIV-1Br3) and the other Trinidad (HIV-1Q72775) by co-cultivation with PHA-blasted normal donor PBMCs in RPMI 1640 containing IL2. The infectious titers of the primary virus stocks were estimated by titration onto normal human PHA blasted PBMCs in a 96 well microtiter plate, again using RT activity released to the supernatant as evidence for successful infection. The infectious titer of both of these isolates was estimated to be approximately 1×10^3 TCID100/ml.
The peptides were next tested for blockade of infection by cell-free virus. The results shown in FIG. 3 are representative of several experiments in which the DP-107, 125, and (CS3) peptides were compared for potency in the blockade of HIVLAI, infection of AA5 cells. Each level of peptide was incubated in triplicate with about 500 TCID50 of virus and cells. After 7 days of culture, cell-free supernatant was tested for the presence of RT activity as a measure of successful infection.

[1] = Circular dichroism spectra / thermal melt (secondary structure in solution); type: physicochemical; details: for Conformation by CD spectra (in words): 37° C.
Protocol: (A) and 37° C. (B). Concentration dependence of the midpoint of the temperature dependence (Tm) of the CD signal (C). Tm corresponds to the maxima of the first derivative of the CD melt curve. The CD spectra were obtained in […], 150 mM sodium chloride buffer at pH 7.0.
Circular dichroism spectra were measured in 10 mM sodium phosphate, 150 mM sodium chloride, pH 7.0 buffer at approximately […] using a 1 cm pathlength cell on a Jobin/Yvon Autodichrograph Mark V CD spectrometer. Peptide concentrations were determined from A280 using Edlehoch's method (Biochemistry 6, 1948 (1967)).

[2] = molecular target: the molecule itself; assay: CD thermal melt, concentration dependence of Tm (self-association)
[3] = peptide concentration 40 ug/ml on IIIB
[4] = EXP. 1, peptide concentration 1.5 micrograms/ml, 0 peptide = 89
[5] = EXP. 1, peptide concentration 3 micrograms/ml, 0 peptide = 89
[6] = EXP. 1, peptide concentration 6 micrograms/ml, 0 peptide = 89
[7] = EXP. 1, peptide concentration 12 micrograms/ml, 0 peptide = 89
[8] = EXP. 1, peptide concentration 25 micrograms/ml, 0 peptide = 89
[9] = EXP. 1, peptide concentration 50 micrograms/ml, 0 peptide = 89
[10] = peptide concentration 1.25 ug/ml on IIIB
[11] = peptide concentration 2.5 ug/ml on IIIB
[12] = peptide concentration 5 ug/ml on IIIB
[13] = peptide concentration 10 ug/ml on IIIB
[14] = peptide concentration 20 ug/ml on IIIB

Row | Molecule | Fusion: quantity of compound required for 90% reduction in number of syncytia (HIV-1LAI virus) | Neutraliz: quantity of compound required for 90% reduction in infectivity (HIV-1LAI) | No. Syncytia/well (HIV-1LAI virus; [3]) | No. Syncytia/well (HIV-1LAI virus; [10]) | No. Syncytia/well (HIV-1LAI virus; [11]) | No. Syncytia/well (HIV-1LAI virus; [12]) | No. Syncytia/well (HIV-1LAI virus; [13]) | No. Syncytia/well (HIV-1LAI virus; [14]) | further results
1 | NNLLRAIEAQQHLLQLTVWGAKQLQARILAVERYLKDQ [DP-140] | 17 µg/mL | 14 µg/mL | – | – | – | – | – | – | –
2 | NNLLRAIEAQQHLLQLTVWGPKQLQARILAVERYLKDQ (Ac-NNLLRAIEAQQHLLQLTVWGPKQLQARILAVERYLKDQ-NH2) [DP-121] | >40 µg/mL | >30 µg/mL | 79 | – | – | – | – | – | Conformation by CD spectra (in words) [1]: random coil conformations; also recorded: failed to exhibit helix related signals; Syncytia Number (HIV-1LAI virus; EXP. 3, peptide concentration 2.5 micrograms/ml, 0 peptide = 76): 68; Syncytia Number (HIV-1LAI virus; EXP. 3, peptide concentration 5 micrograms/ml, 0 peptide = 76): 60; Syncytia Number (HIV-1LAI virus; EXP. 3, peptide concentration 10 micrograms/ml, 0 peptide = 76): 65; Syncytia Number (HIV-1LAI virus; EXP. 3, peptide concentration 20 micrograms/ml, 0 peptide = 76): 71; Syncytia Number (HIV-1LAI virus; EXP. 3, peptide concentration 40 micrograms/ml, 0 peptide = 76): 69; Inhibitory / anti-viral / biological activity (in words) (HIV-1LAI virus): did not exhibit anti-viral activity; also recorded: no sign of inhibitory activity
3 | CGGNNLLRAIEAQQHLLQLTVWGIKQLQARILAV [DP-136] | >40 µg/mL | >30 µg/mL | – | – | – | – | – | – | –
4 | DP-31: peptide representing an overlapping immunodominant site of gp41 (SEQ ID NO: 5); sequence only in FIG. 1 (H-ERYLKDQQLLGIWGCSCKLICG-OH; cysteine pairing not given here) | – | – | – | – | – | – | – | – | Syncytia Number (HIV-1LAI virus; [4]): 75; Syncytia Number (HIV-1LAI virus; [5]): 90; Syncytia Number (HIV-1LAI virus; [6]): 87; Syncytia Number (HIV-1LAI virus; [7]): 78; Syncytia Number (HIV-1LAI virus; [8]): 80; Syncytia Number (HIV-1LAI virus; [9]): 85; Inhibitory / anti-viral / biological activity (in words) (HIV-1LAI virus): failed to show inhibitory activity
5 | GIKQLQARILAVERYLKDQQ [DP-122] | >40 µg/mL | >30 µg/mL | 73 | – | – | – | – | – | –
6 | LQARILAVERYLKDQQQ [DP-116, reference compound] | >40 µg/mL | >30 µg/mL | 77 | – | – | – | – | – | Conformation by CD spectra (in words) [1]: random coil conformations; Stable secondary structure by CD (in words) ([1]; even at low temperatures and high concentrations): no evidence for stable secondary structure; Anti-fusogenic activity (in words) (HIV-1LAI virus): no evidence of anti-fusogenic activity; Syncytia Number (HIV-1LAI virus; [4]): 82; Syncytia Number (HIV-1LAI virus; [5]): 89; Syncytia Number (HIV-1LAI virus; [6]): 92; Syncytia Number (HIV-1LAI virus; [7]): 93; Syncytia Number (HIV-1LAI virus; [8]): 82; Syncytia Number (HIV-1LAI virus; [9]): 89; Blockade of HIVLAI infection of AA5 cells (in words) (HIV-1LAI; about 500 TCID50 of virus, RT activity in supernatant, FIG. 3): no hint of anti-viral effect
7 | CGGNNLLRAIEAQQHLLQLTVWGIKQLQARILAVERYLKDQGGC [DP-130] | 2 µg/mL | <1 µg/mL | 0 | 47 | 0 | 0 | 0 | 0 | –
8 | NNLLRAIEAQQHLLQLTVWGSKQLQARILAVERYLKDQ [DP-139] | >40 µg/mL | >30 µg/mL | – | – | – | – | – | – | –
9 | IEAQQHLLQLTVWGIKQLQARILAVERYLKDQ [DP-123] | 40 µg/mL | >30 µg/mL | 4 | 80 | 69 | 76 | 86 | 55 | –
10 | QQLLDVVKRQQEMLRLTVWGTKNLQARVTAIEKYLKDQ [DP-118] | – | – | 0 | 74 | 78 | 80 | 77 | 0 | –
11 | NNLLRAIEAQQHLLQLTVWGIKQLQARILAVERYLKDQGGC [DP-129] | <1 µg/mL | <1 µg/mL | 0 | 0 | 0 | 0 | 0 | 0 | –
12 | NNLLRAIEAQQHLLQLTVWGIKQLQARILAV [DP-127] | 7 µg/mL | 23 µg/mL | 0 | 87 | 53 | 20 | 0 | 0 | –
13 | B1 | – | – | – | – | – | – | – | – | binding result [2]: binds
